In one series the test system is Male Sprague-Dawley rats. As to the kind of experiment: Mechanical allodynia (von Frey filaments) in rat segmental spinal nerve injury and chronic constriction nerve injury models, results combined. It is filed as in vivo. The conditions noted are these: single injection. The procedure:
Male Sprague-Dawley rats (Charles River Laboratories) weighing 150-200 g were used to evaluate the analgesic properties of the SAN-Gly formulation. The animals were housed in groups of three in plastic cages with soft bedding and under a 12 hour light/dark cycle. Food and water were available ad libitum. After one week of acclimatization to the laboratory conditions, all animals were tested to establish a baseline mechanical allodynia.
Since different animal models of pain can provide different experimental results, SAN-Gly was tested using two rat models. All experiments were performed in a single-blinded fashion, i.e., the experimenter was not aware of which rats received the control saline and which rats received the SAN-Gly formulation.
One rat model used was based on an experimentally produced segmental spinal nerve injury (Kim et al., Pain 50:355-363, 1992). One week after the acclimatization to laboratory conditions, baseline measurements were recorded and surgery was performed as described in Kim et al., supra. Rats were anesthetized with halothane in oxygen and placed in a prone position. A midline skin incision at L4-S2 was made, and paraspinal muscles were separated from the spinous processes in the L4-S2 region. […]
The rats were allowed to recover from surgery for at least a week. […] Both groups were then monitored for allodynia at various time points after surgery. […]

Series [1] has as its system primary afferent-evoked excitatory postsynaptic currents (EPSCs) from lamina II. In words: Electrophysiological recording of primary afferent-evoked EPSCs in lumbar spinal cord slices from spared-nerve injury animals. Type of series: cell-based. The source says:
Electrophysiological recordings were done on 650 μm thick transverse slices of lumbar spinal cord (from spared-nerve injury animals) with attached L4 dorsal root that were perfused with ice cold Krebs' solution ([in mM]: NaCl 117, KCl 3.6, CaCl2 2.5, MgCl2 1.2, NaH2PO4 1.2, NaHCO3 25 and glucose 11) saturated with 95% O2 and 5% CO2. To record primary afferent-evoked excitatory postsynaptic currents (EPSCs) from lamina II, whole cells were patch-clamped and then voltage-clamped at −70 mV. Orthodromicstimulation of L4 dorsal root was performed with a suction electrode attached to a constant current stimulator and graded intensity stimulation sufficient to recruit different afferent populations (Aβ, Aδ, and C-fibers) was used. Resistance of patch pipettes were 5-10 MW when filled with (in mM): Cs2SO4 110, CaCl2 0.5, MgCl2 2, EGTA 5, HEPES 5, TEA 5, ATP-Mg salt 5. Currents were amplified (Axopatch 200A), filtered at 2 kHz, digitized at 5 kHz and analyzed using pCLAMP 6 (Axon Instruments). SAN-Gly was dissolved in ice cold KREBs and bath-applied at two concentrations ([…]). […] In addition, as expected, the same concentration of SAN had no effect.

For series [2] the following is noted: compared with KRN5500; cited from earlier work.
Where [3] appears, read: 100 mM bath-applied, whole-cell patch clamp at -70 mV, observed in three out of five cells.

`NCC(=O)N[C@@H]1[C@@H](O)[C@@H](O)[C@@H](Nc2ncnc3[nH]cnc23)O[C@H]1[C@@H](O)CO` [SAN-Gly, 4′-N-glycyl spicamycin amino nucleoside]: in the series with Male Sprague-Dawley rats (100 mg/kg body weight, single bolus in the tail vein, both animal models combined (FIG. 1)), the “recovery towards baseline pain behavior” value was found to be 60%. Also, the “persistence of increased pain tolerance” value with Male Sprague-Dawley rats (100 mg/kg, tail vein, days after surgery as printed, both models combined) is given as “at least 7 days”. For the same compound, in series [1] (setting [3]), the “amplitude of EPSCs” value is “reduced the amplitude” and the “latency of EPSCs” value is given as “increased the latency”. For the same compound, in series [1] (after 100 mM bath application), the “effect on EPSCs upon washout of the drug” value is reported as “reversed upon washout”. The “cytotoxicity relative to water-insoluble spicamycin derivatives such as KRN5500” value in series [2] is on record as “less cytotoxic”.

The values above are taken from patent US7632825B2, “Methods of decreasing or preventing pain using spicamycin derivatives” (Bayer Pharmaceuticals Corporation, priority 2000, dated 2009).
